Measured values from ChEMBL document CHEMBL1201862, “PubChem BioAssay data set” (2004).
Calls of active or inactive are those of the source.

Tests used:
[1] = biological target: T1, Voltage-dependent T-type calcium channel subunit alpha-1H (Homo sapiens, UniProt O95180); format: functional
[2] = tested on: HeLa; assay: HeLa cell cytotoxicity, dose response, cytotoxicity control, 24 h, cherry-picked samples (AID 504726); format: functional, cell-based; details: Homo sapiens;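 further: potency for cytotoxicity as loss of luminescence signal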
[3] = biological target: ORF 73 (Human herpesvirus 8, UniProt O40947); assay: inhibitors of C-LANA binding to LBS DNA, dose response, biochemical, fluorescence polarization, cherry-picked samples (AID 504725); design: species or system Human gammaherpesvirus 8;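 further: fluorescence polarization of a labeled DNA duplex reporting LANA DNA binding; potency is for inhibitors that block LANA binding to the DNA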
[4] = biological target: T1, Voltage-dependent T-type calcium channel subunit alpha-1H; assay: Inhibitors of T-Type Calcium Channels. [Related pubchem assays (depositor defined):AID449739, AID463087, AID489005, AID493041, AID504579, AID504584, AID504619, AID504628]; format: functional
[5] = biological target: T2, Endoribonuclease toxin MazF (Escherichia coli K-12, UniProt P0AE70); assay: MazF toxin RNase activators, dose response, biochemical, fluorescence, single-stranded RNA substrate, uHTS hits (AID 588481); format: functional
T2 sequence (P0AE70 whole entry): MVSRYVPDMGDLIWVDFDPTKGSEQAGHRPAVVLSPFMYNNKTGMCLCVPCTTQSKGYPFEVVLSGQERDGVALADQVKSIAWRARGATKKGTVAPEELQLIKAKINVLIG

[6] = biological target: UDP-galactopyranose mutase (Mycobacterium tuberculosis, UniProt P9WIQ1); assay: Inhibitors of Mycobacterium tuberculosis UDP-galactopyranose mutase (UGM) enzyme Measured in Biochemical System Using Plate Reader - 2105-02_Inhibitor_Dose_CherryPick_Activity. [Related pubchem assays (depositor defined):AID504439]
[7] = biological target: T2, Endoribonuclease toxin MazF; assay: fluorescent RNA oligo signal without MazF, dose response, counter-screen for MazEF activator project, biochemical, fluorescence, single-stranded RNase substrate (AID 588502); format: functional
[8] = biological target: T3, Estrogen receptor (Homo sapiens, UniProt P03372);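 further: potency for inhibiting coactivator peptide recruitment to the receptor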
T3 sequence (P03372 whole entry): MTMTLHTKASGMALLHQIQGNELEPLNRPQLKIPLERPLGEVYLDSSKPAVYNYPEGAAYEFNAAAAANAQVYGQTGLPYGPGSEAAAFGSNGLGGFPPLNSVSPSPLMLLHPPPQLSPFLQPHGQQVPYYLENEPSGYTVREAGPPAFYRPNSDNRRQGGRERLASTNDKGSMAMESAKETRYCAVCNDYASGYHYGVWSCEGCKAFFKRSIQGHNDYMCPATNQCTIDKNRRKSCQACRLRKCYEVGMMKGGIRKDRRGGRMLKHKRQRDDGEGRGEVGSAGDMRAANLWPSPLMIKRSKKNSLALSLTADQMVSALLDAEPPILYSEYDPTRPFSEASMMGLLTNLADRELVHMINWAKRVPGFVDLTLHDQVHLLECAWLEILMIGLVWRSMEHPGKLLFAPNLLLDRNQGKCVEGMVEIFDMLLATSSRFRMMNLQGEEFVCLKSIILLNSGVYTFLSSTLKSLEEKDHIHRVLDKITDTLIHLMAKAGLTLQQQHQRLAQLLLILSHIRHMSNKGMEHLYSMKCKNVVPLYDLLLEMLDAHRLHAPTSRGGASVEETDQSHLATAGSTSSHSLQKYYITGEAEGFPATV

[9] = biological target: T4, Estrogen receptor beta (Homo sapiens, UniProt Q92731);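 further: recombinant ER-beta bound to coactivator SRC1 peptide in presence of estradiol agonist; inhibitors block coactivator peptide binding and lower the FRET signal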
[10] = biological target: T4, Estrogen receptor beta; assay: ERβ–SRC-3 coactivator interaction inhibitors, confirmation, orthogonal assay, biochemical, ELISA, streptavidin-HRP readout (AID 1060)
[11] = biological target: Scavenger receptor class B member 1 (Mus musculus, UniProt Q61009); assay: inhibitors of SR-BI mediated HDL lipid uptake, dose response, ldlA[mSR-BI] cells, fluorescence, cherry pick (AID 493194); format: functional, cell-based;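 further: cellular uptake of fluorescent DiI-labeled HDL measured as cell fluorescence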
[12] = cytotoxicity in HEK-293T cells, dose response, cytotoxicity control for TCR NF-kB inhibitor project, luminescence, T-cell screen hits (AID 489026); format: functional, cell-based;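 further: cells exposed to compound about 14 hours before the viability readout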
[13] = biological target: Cyclin-dependent kinase 5/CDK5 activator 1 (Homo sapiens, UniProt Q00535); assay: CDK5/p35 kinase inhibitors, dose response, biochemical, cherry-picked samples, set 2 (AID 504545)
[14] = biological target: Cystic fibrosis transmembrane conductance regulator/Golgi-associated PDZ and coiled-coil motif-containing protein (Homo sapiens, UniProt P13569+Q9HD26); assay: CAL PDZ peptide-binding inhibitors, dose response, biochemical, fluorescence polarization, Cerulean-tagged CAL PDZ, cherry-picks (AID 504773)
[15] = biological target: Nonstructural protein 1 (Influenza A virus, UniProt Q194T2); format: functional, Influenza A virus (A/California/07/2009(H1N1))
[16] = biological target: Keap1/Nrf2 (Homo sapiens, UniProt Q14145); assay: Keap1-Nrf2 protein-protein interaction inhibitors, dose response, biochemical, fluorescence polarization, cherry-picked samples (AID 588683)
[17] = biological target: Signal transducer and activator of transcription 3 (Homo sapiens, UniProt P40763); assay: STAT3 activators, late-stage profile, late-stage follow-up, cell-based, STAT1 reporter, BCL3 qPCR, cytotoxicity, panel member STAT3 Activation (AID 2049)

Sequence of ORF 73 (O40947 whole entry): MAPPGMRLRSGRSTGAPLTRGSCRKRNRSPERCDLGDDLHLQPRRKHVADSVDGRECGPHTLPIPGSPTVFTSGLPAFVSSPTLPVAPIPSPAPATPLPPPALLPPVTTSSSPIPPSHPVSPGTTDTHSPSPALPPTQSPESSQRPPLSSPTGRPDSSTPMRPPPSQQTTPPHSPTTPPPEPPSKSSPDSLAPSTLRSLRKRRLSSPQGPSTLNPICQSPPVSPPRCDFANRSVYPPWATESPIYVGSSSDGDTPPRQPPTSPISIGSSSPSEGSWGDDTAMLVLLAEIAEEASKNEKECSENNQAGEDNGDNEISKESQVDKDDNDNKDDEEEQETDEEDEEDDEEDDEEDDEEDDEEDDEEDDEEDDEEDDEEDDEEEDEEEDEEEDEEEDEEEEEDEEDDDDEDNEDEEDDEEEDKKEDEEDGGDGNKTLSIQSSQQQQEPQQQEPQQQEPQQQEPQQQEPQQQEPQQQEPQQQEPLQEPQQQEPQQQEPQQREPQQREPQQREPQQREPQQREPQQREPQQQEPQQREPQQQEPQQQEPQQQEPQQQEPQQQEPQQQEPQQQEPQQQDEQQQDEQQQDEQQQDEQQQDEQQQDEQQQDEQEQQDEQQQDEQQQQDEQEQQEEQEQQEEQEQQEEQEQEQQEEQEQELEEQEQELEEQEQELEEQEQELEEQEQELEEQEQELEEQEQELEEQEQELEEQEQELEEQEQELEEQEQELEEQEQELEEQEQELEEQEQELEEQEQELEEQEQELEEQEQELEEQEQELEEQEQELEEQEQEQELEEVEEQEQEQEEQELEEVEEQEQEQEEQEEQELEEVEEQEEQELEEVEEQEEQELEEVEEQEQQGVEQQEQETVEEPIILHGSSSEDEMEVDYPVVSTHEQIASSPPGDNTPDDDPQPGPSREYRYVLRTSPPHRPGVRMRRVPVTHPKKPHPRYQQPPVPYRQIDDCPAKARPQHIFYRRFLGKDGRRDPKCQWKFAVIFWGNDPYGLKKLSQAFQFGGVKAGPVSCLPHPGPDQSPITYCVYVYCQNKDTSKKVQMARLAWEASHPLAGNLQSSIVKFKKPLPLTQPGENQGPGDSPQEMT
Sequence of UDP-galactopyranose mutase (P9WIQ1 whole entry): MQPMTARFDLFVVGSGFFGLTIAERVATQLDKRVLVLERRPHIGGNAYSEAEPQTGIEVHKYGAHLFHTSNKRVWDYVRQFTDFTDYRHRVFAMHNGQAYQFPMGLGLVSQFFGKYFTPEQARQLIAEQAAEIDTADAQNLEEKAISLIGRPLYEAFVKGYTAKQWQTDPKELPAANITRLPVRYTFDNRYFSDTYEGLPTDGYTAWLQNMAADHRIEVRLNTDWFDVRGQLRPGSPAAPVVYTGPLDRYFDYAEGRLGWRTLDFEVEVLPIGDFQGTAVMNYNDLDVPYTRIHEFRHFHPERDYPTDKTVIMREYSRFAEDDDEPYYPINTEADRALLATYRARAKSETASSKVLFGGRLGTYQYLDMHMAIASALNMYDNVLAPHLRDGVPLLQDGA
T4 sequence (Q92731 whole entry): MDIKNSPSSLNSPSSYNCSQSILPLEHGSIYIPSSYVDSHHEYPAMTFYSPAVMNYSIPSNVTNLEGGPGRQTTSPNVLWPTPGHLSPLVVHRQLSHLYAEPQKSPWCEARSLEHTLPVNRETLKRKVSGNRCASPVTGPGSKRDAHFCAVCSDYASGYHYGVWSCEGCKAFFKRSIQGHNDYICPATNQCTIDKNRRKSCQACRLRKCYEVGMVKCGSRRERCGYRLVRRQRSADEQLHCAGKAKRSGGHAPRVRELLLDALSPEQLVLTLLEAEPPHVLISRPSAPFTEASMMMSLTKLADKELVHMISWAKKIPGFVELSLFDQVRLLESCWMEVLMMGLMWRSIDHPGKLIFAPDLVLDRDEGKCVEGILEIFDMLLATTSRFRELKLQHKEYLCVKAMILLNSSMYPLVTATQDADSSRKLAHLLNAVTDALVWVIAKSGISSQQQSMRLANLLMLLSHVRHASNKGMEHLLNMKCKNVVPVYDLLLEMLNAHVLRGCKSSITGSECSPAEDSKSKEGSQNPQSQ
T1 sequence (O95180 whole entry): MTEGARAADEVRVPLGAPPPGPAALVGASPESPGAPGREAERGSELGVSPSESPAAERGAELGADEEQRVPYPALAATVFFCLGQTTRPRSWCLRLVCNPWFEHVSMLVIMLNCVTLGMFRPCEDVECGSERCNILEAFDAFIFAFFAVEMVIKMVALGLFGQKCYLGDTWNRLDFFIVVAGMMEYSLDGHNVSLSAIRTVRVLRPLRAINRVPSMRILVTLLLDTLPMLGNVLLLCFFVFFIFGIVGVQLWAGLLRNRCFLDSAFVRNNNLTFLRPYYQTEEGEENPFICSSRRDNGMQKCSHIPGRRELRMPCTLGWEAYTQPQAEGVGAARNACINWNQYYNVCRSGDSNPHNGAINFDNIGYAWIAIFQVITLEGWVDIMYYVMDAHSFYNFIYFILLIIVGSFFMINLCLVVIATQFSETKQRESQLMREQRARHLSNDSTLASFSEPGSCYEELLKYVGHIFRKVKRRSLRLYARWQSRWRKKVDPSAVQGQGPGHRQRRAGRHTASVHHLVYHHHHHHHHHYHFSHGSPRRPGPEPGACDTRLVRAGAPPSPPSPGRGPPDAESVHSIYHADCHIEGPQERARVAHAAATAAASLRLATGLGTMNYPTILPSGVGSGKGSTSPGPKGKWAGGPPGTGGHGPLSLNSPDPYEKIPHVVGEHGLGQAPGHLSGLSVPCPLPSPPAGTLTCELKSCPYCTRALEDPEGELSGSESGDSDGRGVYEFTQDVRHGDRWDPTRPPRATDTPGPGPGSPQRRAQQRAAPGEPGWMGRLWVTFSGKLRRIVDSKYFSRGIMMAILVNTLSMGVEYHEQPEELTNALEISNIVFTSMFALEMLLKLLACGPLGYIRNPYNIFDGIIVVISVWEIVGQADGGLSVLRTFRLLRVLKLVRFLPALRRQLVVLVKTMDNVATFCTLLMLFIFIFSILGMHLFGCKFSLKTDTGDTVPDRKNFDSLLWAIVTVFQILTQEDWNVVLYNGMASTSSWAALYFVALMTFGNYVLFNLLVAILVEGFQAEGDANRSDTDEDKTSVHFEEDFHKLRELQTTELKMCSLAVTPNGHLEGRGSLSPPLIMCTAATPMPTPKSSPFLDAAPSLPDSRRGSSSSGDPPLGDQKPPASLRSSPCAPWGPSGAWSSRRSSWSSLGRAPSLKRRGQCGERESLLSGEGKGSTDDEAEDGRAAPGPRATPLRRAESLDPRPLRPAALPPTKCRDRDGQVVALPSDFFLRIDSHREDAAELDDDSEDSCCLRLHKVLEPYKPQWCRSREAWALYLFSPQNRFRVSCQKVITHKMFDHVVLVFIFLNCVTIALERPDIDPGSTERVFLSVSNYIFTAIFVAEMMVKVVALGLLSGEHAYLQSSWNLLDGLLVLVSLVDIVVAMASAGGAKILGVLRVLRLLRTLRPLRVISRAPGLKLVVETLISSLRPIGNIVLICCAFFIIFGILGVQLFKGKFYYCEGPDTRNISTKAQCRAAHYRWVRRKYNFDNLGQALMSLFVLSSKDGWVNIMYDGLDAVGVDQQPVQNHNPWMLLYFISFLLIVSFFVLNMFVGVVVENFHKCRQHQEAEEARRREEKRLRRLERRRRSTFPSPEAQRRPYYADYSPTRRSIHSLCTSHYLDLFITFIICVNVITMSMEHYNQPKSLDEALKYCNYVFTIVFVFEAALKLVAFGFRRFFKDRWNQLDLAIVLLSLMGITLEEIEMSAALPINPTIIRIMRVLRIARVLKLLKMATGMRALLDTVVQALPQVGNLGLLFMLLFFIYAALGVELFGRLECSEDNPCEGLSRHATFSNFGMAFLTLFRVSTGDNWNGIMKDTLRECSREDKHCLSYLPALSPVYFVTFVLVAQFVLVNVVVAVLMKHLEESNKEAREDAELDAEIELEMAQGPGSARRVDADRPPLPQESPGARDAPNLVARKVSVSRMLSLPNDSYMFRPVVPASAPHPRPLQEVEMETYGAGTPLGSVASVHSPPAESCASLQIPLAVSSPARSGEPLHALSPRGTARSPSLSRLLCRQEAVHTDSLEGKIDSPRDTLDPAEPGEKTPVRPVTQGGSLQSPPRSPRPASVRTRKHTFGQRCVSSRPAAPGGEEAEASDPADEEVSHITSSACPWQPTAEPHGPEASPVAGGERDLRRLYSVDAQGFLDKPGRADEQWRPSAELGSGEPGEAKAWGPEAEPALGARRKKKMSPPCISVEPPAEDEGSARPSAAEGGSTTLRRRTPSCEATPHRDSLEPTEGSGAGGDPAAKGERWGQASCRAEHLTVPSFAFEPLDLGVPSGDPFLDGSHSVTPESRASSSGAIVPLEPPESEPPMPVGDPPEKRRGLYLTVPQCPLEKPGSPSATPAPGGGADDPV
Sequence of Scavenger receptor class B member 1 (Q61009 whole entry): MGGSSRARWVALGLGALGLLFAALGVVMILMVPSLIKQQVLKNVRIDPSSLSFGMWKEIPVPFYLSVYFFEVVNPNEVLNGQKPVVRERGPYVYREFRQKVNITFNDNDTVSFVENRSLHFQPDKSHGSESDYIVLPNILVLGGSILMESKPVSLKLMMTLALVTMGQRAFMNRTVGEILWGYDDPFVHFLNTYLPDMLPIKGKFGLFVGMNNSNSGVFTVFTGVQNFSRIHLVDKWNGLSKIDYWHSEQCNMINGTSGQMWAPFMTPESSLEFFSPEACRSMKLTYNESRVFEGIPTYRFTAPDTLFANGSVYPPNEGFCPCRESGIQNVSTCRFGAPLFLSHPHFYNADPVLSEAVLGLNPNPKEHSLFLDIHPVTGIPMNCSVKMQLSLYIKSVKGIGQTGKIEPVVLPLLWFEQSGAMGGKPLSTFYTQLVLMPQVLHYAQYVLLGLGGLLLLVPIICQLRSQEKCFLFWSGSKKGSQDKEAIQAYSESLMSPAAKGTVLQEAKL

In the case of Nc1c(C(=O)Nc2ccccc2F)sc2nc(Cc3ccccc3)cc(C(F)(F)F)c12, the EC50 [1] is reported as 2.71 µM (active), the AC50 [2] is reported as 95.9 µM (active) and the AC50 [3] is reported as 16.1 µM (active). For the same molecule, the EC50 [4] was 1.9 µM (active), the EC50 [5] was 17.4 µM (active) and the AC50 [6] was 98.6 µM (active). The EC50 [7] was > 99 µM (inactive).
With Cc1c(C(=O)OCc2ccccc2)[nH]c2c1C(=O)CC(c1ccco1)C2 (stereo not given) the IC50 [8] was 23 µM (active), the IC50 [9] was 15.1 µM (active) and the IC50 [10] was 9.51 µM (not active). The AC50 [11] was 0.258 µM (active) and the IC50 [12] was > 80 µM (inactive).
For COc1ccc2nc3c(cc2c1)c(NC(=O)C1CCCO1)nn3CC(C)C (stereo not given), the AC50 [13] was 31.2 µM (active).
For CCNc1ccc2noc3c2c1C(=O)c1ccccc1-3, the AC50 [14] was 4.08 µM (active), the AC50 [2] was 42.9 µM (active) and the AC50 [3] was 1.03 µM (active). For the same molecule, the IC50 [15] was 62 µM (active), the AC50 [6] was 0.609 µM (active) and the AC50 [16] was 0.866 µM (active).
With COc1cc(NC(=O)c2cc(C)on2)c(OC)cc1Cl the EC50 [17] was 6.98 µM (active).
